Values of other authors, collected in patent US20090142809A1, “Method for Cleaving Cervimycin Monoesters” (LEIBNIZ-INSTITUT FÜR NATURSTOFF-FORSCHUNG UND INFE, priority 2005, published 2009).

What was measured:
[1] = test system: vancomycin-resistant Enterococcus faecalis; details: statement in words in the background section
[2] = test system: multiresistant staphylococci; details: statement in words in the background section

## COC1=CC(=O)c2c(cc3c(c2O)C(=O)[C@@]2(O[C@H]4CC[C@H](O[C@H]5CC[C@H](O)[C@@H](C)O5)[C@@H](C)O4)C(O)=C(C(N)=O)C(=O)[C@H](O[C@H]4CC[C@H](O[C@H]5CC[C@H](O[C@H]6CC[C@H](O[C@H]7CC[C@H](O)[C@H](C)O7)[C@H](C)O6)[C@H](C)O5)[C@@H](C)O4)[C@H]2C3)C1=O [cervimycin K]
[1]
  activity against the vancomycin-resistant Enterococcus faecalis: extremely strong activity
[2]
  activity against multiresistant staphylococci: extremely strong activity
